For the assay, the target named is T1, Hexokinase-1 (Saccharomyces cerevisiae (strain ATCC 204508 / S288c), UniProt P04806).
T1 sequence (P04806 whole entry): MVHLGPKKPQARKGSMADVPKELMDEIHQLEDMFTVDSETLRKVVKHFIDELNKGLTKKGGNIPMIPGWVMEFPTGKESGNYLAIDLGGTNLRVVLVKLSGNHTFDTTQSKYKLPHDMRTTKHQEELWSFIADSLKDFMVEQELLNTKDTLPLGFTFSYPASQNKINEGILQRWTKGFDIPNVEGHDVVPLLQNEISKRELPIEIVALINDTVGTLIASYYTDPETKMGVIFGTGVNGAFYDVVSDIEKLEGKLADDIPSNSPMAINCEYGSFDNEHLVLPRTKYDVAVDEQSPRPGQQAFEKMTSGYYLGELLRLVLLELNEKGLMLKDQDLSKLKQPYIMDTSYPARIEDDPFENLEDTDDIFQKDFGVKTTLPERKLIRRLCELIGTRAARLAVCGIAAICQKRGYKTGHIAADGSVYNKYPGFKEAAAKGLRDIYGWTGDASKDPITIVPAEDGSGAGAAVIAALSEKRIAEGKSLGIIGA
The assay is described as follows: Enzyme Inhibition Assay. The conditions noted are these: pH 7.6; 25 °C. How it is done: The assay phosphotransferase activity was followed spectrophotometrically b reduction of NADP in the presence of an excess of glucose-6-phosphate-dehydrogenase (method A). ATPase activity was measured by spectrophotometric measurement of the rate of oxidation of NADH in the presence of phospho-enol-pyruvate, pyruvated-kinase and lactate-dehydrogenase (method B).
By IC50 is commonly meant the midpoint of a concentration-inhibition curve. Read a low IC50 as greater potency. `Cc1ccccc1C(=O)N[C@@H]1[C@@H](O)[C@H](O)[C@@H](CO)O[C@@H]1O` [Glucosamine analog, 2] registered an IC50 of 8 mM.
The figure for `Nc1cccc(C(=O)NC2C(O)OC(CO)C(O)C2O)c1` (configuration not stated) [Glucosamine analog, 10] is 6 mM.
In turn, `O=C(NC1C(O)OC(CO)C(O)C1O)c1ccccc1[N+](=O)[O-]` (configuration not stated) [Glucosamine analog, 7] showed an IC50 of 3 mM.
To `O=C(NC1C(O)OC(CO)C(O)C1O)c1cccc([N+](=O)[O-])c1` (configuration not stated) [Glucosamine analog, 8] belongs 6 mM.
The figure for `Nc1ccccc1C(=O)NC1C(O)OC(CO)C(O)C1O` (configuration not stated) [Glucosamine analog, 9] is 1 mM; for `CC(=O)Nc1ccccc1C(=O)NC1C(O)OC(CO)C(O)C1O` (configuration not stated) [Glucosamine analog, 4] it is 18 mM.
To `O=C(N[C@@H]1[C@@H](O)[C@H](O)[C@@H](CO)O[C@H]1O)c1ccccc1` [Glucosamine analog, 1] belongs 7 mM.

For the origin of these results see BindingDB's records for doi:10.3109/14756369709035812 (Universite Paul Sabatier, 1997).
